Experimental data from article PMC5715905, “Mechanistic insight into the assembly of the HerA–NurA helicase–nuclease DNA end resection complex” (Nucleic Acids Research, 2017).
Where “and” joins values, the source holds several entries; their conditions need not be identical. Identical values can stand only once.

How the values were obtained:
HerA = biological target: T1, HerA (Saccharolobus solfataricus, UniProt Q97WG8); test: native mass spectrometry titration; format: binding; details: 2 mM MgCl2, room temperature 1 h, 30 μM monomer, then 200 mM ammonium acetate, no dsDNA
T1 construct: recombinant, heat-treated, heparin and Q columns; homo-hexamer and homo-heptamer (heptamer dominant when apo)
T1 sequence (Q97WG8 1-500): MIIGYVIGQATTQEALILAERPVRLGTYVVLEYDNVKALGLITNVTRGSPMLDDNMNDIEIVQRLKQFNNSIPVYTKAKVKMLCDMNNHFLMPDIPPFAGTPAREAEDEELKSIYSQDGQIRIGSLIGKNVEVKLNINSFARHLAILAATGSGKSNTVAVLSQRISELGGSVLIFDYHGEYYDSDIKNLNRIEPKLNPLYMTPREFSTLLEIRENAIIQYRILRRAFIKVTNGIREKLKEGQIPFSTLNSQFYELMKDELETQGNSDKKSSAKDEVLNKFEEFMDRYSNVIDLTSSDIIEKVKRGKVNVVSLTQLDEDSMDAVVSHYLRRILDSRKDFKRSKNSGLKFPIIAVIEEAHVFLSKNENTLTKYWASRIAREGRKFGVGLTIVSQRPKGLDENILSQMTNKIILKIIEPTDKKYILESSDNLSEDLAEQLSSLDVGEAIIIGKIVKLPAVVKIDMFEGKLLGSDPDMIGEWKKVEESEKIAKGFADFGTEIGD

HerA–NurA = biological target: T2, HerA–NurA (Saccharolobus solfataricus, UniProt Q97WG8); test: native mass spectrometry; format: binding; details: nuclease-active complex with 25 bp dsDNA
T2 construct: purified recombinant HerA hexamer with NurA dimer; with DNA double-strand break repair nuclease NurA

[1] = biological target: the molecule itself; test: native MS; HerA alone, nucleotide-free (apo), 200 mM ammonium acetate pH 7.0-7.5, nano electrospray; relative intensities by UniDec

T2 sequence (Q97WH1 whole entry, one chain of several, further chain): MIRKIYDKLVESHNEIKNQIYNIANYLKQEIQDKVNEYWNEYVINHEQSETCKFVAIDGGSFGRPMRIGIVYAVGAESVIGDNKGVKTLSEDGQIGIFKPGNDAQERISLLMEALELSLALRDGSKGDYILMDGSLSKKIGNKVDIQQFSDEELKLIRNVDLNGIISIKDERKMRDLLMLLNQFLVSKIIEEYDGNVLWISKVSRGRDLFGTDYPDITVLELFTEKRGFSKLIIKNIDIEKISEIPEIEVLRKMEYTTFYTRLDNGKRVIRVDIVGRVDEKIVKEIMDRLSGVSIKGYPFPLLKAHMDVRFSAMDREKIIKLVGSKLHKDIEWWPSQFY

Molecule: Nc1ncnc2c1ncn2[C@@H]1O[C@H](COP(=O)(O)OP(=O)(O)O)[C@@H](O)[C@H]1O [ADP]
- native mass spectrometry titration (HerA; 1 mM ADP spectrum): increase in hexameric HerA population was found when titrating HerA with increasing concentrations of ADP
- native mass spectrometry (HerA–NurA; ATP-γ-S pre-bound): determined the number of ADP simultaneously bound to HerA–NurA–dsDNA

Molecule: Nc1ncnc2c1ncn2[C@@H]1O[C@H](COP(=O)(O)OP(=O)(O)OP(O)(O)=S)[C@@H](O)[C@H]1O [ATP-γ-S]
- native mass spectrometry titration (HerA): the HerA hexamer binds all six ATP-γ-S simultaneously
- native mass spectrometry (HerA–NurA; mixed with ADP): nuclease-active HerA–NurA–dsDNA complex was incubated with ATP-γ-S

B1: HerA helicase, wild type (Sulfolobus solfataricus) (enzyme, S. solfataricus)
chain: MIIGYVIGQATTQEALILAERPVRLGTYVVLEYDNVKALGLITNVTRGSPMLDDNMNDIEIVQRLKQFNNSIPVYTKAKVKMLCDMNNHFLMPDIPPFAGTPAREAEDEELKSIYSQDGQIRIGSLIGKNVEVKLNINSFARHLAILAATGSGKSNTVAVLSQRISELGGSVLIFDYHGEYYDSDIKNLNRIEPKLNPLYMTPREFSTLLEIRENAIIQYRILRRAFIKVTNGIREKLKEGQIPFSTLNSQFYELMKDELETQGNSDKKSSAKDEVLNKFEEFMDRYSNVIDLTSSDIIEKVKRGKVNVVSLTQLDEDSMDAVVSHYLRRILDSRKDFKRSKNSGLKFPIIAVIEEAHVFLSKNENTLTKYWASRIAREGRKFGVGLTIVSQRPKGLDENILSQMTNKIILKIIEPTDKKYILESSDNLSEDLAEQLSSLDVGEAIIIGKIVKLPAVVKIDMFEGKLLGSDPDMIGEWKKVEESEKIAKGFADFGTEIGD
notes: HerA helicase of the thermophilic archaeon Sulfolobus solfataricus; In solution a mix of hexamer and heptamer; the hexamer is the form found with NurA; No tag is named in the purification; Expression and constructs may be described in the supplementary materials and methods; also called apo-HerA; wild-type HerA; source: cells lysed by sonication, lysate heated at 70°C, purified (Heparin HP, …)
- abundance of the heptamer over the hexamer [1]: ~10 fold
- stoichiometry N [1]: 6 and 7
